We go through 19 compounds from ChEMBL document CHEMBL1909046, “DrugMatrix in vitro pharmacology data”.

Assay [1] has as its target T1, Alpha-2C adrenergic receptor (Homo sapiens, UniProt P18825).
T1 sequence (P18825 whole entry): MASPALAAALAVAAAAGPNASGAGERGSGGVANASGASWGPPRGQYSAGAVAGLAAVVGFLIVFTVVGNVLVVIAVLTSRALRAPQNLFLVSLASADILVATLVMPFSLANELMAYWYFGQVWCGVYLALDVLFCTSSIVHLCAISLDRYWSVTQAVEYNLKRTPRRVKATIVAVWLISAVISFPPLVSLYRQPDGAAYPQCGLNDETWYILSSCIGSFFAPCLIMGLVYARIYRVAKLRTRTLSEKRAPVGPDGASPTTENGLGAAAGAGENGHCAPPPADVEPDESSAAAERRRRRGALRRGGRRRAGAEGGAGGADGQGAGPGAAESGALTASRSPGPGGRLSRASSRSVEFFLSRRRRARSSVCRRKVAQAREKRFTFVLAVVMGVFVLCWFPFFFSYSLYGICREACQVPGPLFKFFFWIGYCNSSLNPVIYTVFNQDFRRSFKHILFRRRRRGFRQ
Put plainly: DRUGMATRIX: Adrenergic Alpha-2C radioligand binding (ligand: [3H] MK-912). It counts as cell membranes, Sf9, Membrane. Particulars: sf9.

In assay [2] the target is Beta-3 adrenergic receptor (Homo sapiens, UniProt P13945). As to the kind of experiment: DRUGMATRIX: Adrenergic beta3 radioligand binding (ligand: [125I] Cyanopindolol). It is filed as cell membranes, HEK293, Membrane. Particulars: Not Active = under 50% inhibition at 10 µM.
Chain of Beta-3 adrenergic receptor (P13945 whole entry): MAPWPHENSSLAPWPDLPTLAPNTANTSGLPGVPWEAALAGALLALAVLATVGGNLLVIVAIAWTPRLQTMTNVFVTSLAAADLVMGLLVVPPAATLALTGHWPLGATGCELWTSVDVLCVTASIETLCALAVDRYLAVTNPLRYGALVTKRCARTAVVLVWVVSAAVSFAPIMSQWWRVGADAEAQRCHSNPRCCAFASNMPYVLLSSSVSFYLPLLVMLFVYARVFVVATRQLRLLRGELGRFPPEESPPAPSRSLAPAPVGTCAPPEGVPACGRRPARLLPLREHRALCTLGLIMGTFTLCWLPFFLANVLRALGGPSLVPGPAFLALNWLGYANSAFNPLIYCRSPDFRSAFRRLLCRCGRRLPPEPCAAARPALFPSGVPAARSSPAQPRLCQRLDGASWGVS
Assay [3] in a line: DRUGMATRIX: GABAA, Muscimol, Central radioligand binding (ligand: [3H] Muscimol). Particulars: Not Active = under 50% inhibition at 10 µM. It counts as cell membranes, Rattus norvegicus, Wistar, Brain, Membrane.
Assay [4] addresses T2, Leukotriene C4 synthase (Cavia porcellus, UniProt A6XA80).
T2 sequence (A6XA80 whole entry): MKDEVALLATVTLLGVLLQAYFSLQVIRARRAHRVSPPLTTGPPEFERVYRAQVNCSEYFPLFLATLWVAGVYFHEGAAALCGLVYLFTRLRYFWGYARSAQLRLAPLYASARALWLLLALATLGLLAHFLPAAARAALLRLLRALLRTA
It is filed as tissue-based, Lung.

The nature of assay [5]: DRUGMATRIX: Phorbol Ester radioligand binding (ligand: [3H] PDBu). It counts as cell membranes, Mus musculus, ICR, Brain, Membrane. Particulars: Not Active = under 50% inhibition at 10 µM.
For assay [6], the target named is Tyrosine-protein kinase Lck (Homo sapiens, UniProt P06239). As to the kind of experiment: DRUGMATRIX: Protein Tyrosine Kinase, LCK enzyme inhibition (substrate: Poly(Glu:Tyr)). It counts as cell-based, Insect cells. The note with it: insect cells; Not Active = under 50% inhibition at 10 µM.
Chain of Tyrosine-protein kinase Lck (P06239 whole entry): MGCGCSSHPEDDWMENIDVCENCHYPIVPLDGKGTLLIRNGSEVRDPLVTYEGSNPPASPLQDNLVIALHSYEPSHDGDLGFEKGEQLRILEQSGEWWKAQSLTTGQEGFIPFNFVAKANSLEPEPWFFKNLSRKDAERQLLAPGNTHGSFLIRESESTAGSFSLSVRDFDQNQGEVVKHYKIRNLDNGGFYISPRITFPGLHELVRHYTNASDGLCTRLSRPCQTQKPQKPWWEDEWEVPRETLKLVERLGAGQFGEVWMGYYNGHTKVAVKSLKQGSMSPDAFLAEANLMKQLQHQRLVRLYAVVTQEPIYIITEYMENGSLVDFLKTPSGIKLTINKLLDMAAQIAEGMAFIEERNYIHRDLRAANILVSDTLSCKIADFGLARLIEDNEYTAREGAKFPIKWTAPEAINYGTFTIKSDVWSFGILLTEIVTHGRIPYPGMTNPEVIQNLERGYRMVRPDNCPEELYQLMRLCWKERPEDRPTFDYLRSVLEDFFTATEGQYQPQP
The target of assay [7] is Estrogen receptor beta (Homo sapiens, UniProt Q92731). Particulars: sf9. Note: in other assays of this panel Not Active means under 50% inhibition at 10 µM.
Chain of Estrogen receptor beta (Q92731 whole entry): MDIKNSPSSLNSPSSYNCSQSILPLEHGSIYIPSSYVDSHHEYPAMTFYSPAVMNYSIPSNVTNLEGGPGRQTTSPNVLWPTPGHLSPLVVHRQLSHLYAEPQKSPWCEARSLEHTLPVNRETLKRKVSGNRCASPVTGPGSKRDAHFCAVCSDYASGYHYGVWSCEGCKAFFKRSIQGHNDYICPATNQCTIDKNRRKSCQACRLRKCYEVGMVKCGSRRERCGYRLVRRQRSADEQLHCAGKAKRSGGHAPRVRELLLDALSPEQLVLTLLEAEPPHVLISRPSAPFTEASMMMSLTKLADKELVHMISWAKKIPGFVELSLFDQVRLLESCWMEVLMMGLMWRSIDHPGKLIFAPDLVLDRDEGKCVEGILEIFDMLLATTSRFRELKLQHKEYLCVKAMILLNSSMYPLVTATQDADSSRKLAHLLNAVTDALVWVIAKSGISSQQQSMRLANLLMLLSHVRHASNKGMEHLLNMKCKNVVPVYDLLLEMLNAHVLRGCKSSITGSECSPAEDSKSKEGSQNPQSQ

Regarding `CCCOc1ccc(C(=O)OCCN(CC)CC)cc1N` [PROPARACAINE], the IC50 result in assay [1], in assay [2] (hek293), in assay [3], in assay [4], in assay [5] and in assay [6] was “Not Active” throughout. Moreover, the IC50 (usually the concentration at which inhibition is half-maximal) in assay [7] is reported as “Not Active”. For the same compound, the inhibition constant Ki result in assay [3] and in assay [5] was “Not Active” each time.
Regarding `O=C(O)c1cccnc1Nc1cccc(C(F)(F)F)c1` [NIFLUMIC ACID], the IC50 result in assay [1], in assay [2] (hek293), in assay [3], in assay [4], in assay [5] and in assay [6] was “Not Active” each time. In assay [7], the IC50 result is “Not Active”. Also, the Ki result in assay [3] and in assay [5] was “Not Active” throughout.
As to `CN1[C@@H]2CC[C@H]1C[C@@H](OC(=O)C(CO)c1ccccc1)C2` (some centres not stated) [ATROPINE], the IC50 result in assay [1], in assay [2] (hek293), in assay [3], in assay [4], in assay [5] and in assay [6] was “Not Active” each time. Further, the IC50 result in assay [7] is recorded as “Not Active”. The Ki result in assay [3] and in assay [5] was “Not Active” throughout.
Turning to `CCCN(CCC)S(=O)(=O)c1ccc(C(=O)O)cc1` [PROBENECID], the IC50 entry in assay [1], in assay [2] (hek293), in assay [3], in assay [4], in assay [5] and in assay [6] was “Not Active” in each case. In addition, the IC50 entry in assay [7] is “Not Active”. Moreover, the Ki result in assay [3] and in assay [5] was “Not Active” throughout.
Regarding `O=C1CN=C(c2ccccc2Cl)c2cc([N+](=O)[O-])ccc2N1` [CLONAZEPAM], the IC50 entry in assay [1], in assay [2] (hek293), in assay [3], in assay [4], in assay [5] and in assay [6] was “Not Active” each time. Besides, in assay [7], the IC50 entry was “Not Active”. Also, the Ki result in assay [3] and in assay [5] was “Not Active” in each case.
With `CC(C(=O)O)c1cccc(Oc2ccccc2)c1` (configuration not stated) [FENOPROFEN], the IC50 entry in assay [1], in assay [2] (hek293), in assay [3], in assay [4], in assay [5] and in assay [6] was “Not Active” in each case. Also, in assay [7], the IC50 result is recorded as “Not Active”. Further, the Ki entry in assay [3] and in assay [5] was “Not Active” in each case.
For GENTAMICIN, the IC50 result in assay [1], in assay [2] (hek293), in assay [3], in assay [4], in assay [5] and in assay [6] was “Not Active” each time. For the same compound, the IC50 result in assay [7] was “Not Active”. The Ki entry in assay [1], in assay [2] (hek293), in assay [3], in assay [4], in assay [5] and in assay [6] was “Not Active” throughout. Also, the inhibition constant Ki (commonly the equilibrium dissociation constant of an inhibitor or competing ligand from its target) in assay [7] is “Not Active”.
`CC(=O)Oc1ccc(C(c2ccc(OC(C)=O)cc2)c2ccccn2)cc1` [BISACODYL]: the IC50 entry in assay [1], in assay [2] (hek293), in assay [3], in assay [4], in assay [5] and in assay [6] was “Not Active” each time. Further, the IC50 entry in assay [7] is given as “Not Active”. In addition, the inhibition constant Ki result in assay [3] and in assay [5] was “Not Active” each time.
For the compound `C[C@@H]1O[C@@H](O[C@@H]2C=C3CC[C@@H]4[C@H](CC[C@]5(C)[C@@H](c6ccc(=O)oc6)CC[C@]45O)[C@@]3(C)CC2)[C@H](O)[C@H](O)[C@H]1O` [PROSCILLARIDIN], the IC50 result in assay [1], in assay [2] (hek293), in assay [3], in assay [4], in assay [5] and in assay [6] was “Not Active” each time. Moreover, in assay [7], the IC50 result is on record as “Not Active”. The Ki entry in assay [3] and in assay [5] was “Not Active” in each case.
Regarding `C[n+]1ccc(-c2cc[n+](C)cc2)cc1.[Cl-].[Cl-]` [PARAQUAT DICHLORIDE], the IC50 result in assay [1], in assay [2] (hek293), in assay [3], in assay [4], in assay [5] and in assay [6] was “Not Active” each time. The concentration for half-maximal inhibition (IC50) entry in assay [7] is reported as “Not Active”. The inhibition constant Ki entry in assay [3] and in assay [5] was “Not Active” in each case.
Turning to `Cc1cc2c(OCC(CNC(C)(C)C)OC(=O)c3ccccc3)cccc2[nH]1` (configuration not stated) [BOPINDOLOL], the IC50 entry is “Not Active” in assay [1]; 458 nM in assay [2] (read-out: IC50); “Not Active” in assay [3]; “Not Active” in assay [4]; “Not Active” in assay [5]; “Not Active” in assay [6]. Further, the IC50 entry in assay [7] is given as “Not Active”. The Ki in assay [2] (read-out: Ki) is 344 nM; in assay [3], “Not Active”; in assay [5], “Not Active”.
As to `Nc1ccn([C@@H]2O[C@H](CO)[C@@H](O)C2(F)F)c(=O)n1` [GEMCITABINE], the IC50 entry in assay [1], in assay [2] (hek293), in assay [3], in assay [4], in assay [5] and in assay [6] was “Not Active” in each case. In assay [7], the IC50 entry is listed as “Not Active”. Besides, the inhibitory constant (Ki) entry in assay [3] and in assay [5] was “Not Active” throughout.
Turning to GADOPENTETATE DIMEGLUMINE, the IC50 entry in assay [1], in assay [2] (hek293), in assay [3], in assay [4], in assay [5] and in assay [6] was “Not Active” throughout. Further, the IC50 entry in assay [7] is reported as “Not Active”. Also, the Ki result in assay [1], in assay [2] (hek293), in assay [3], in assay [4], in assay [5] and in assay [6] was “Not Active” throughout. Besides, the Ki result in assay [7] is recorded as “Not Active”.
Regarding `CCn1cc(C(=O)O)c(=O)c2cnc(N3CCCC3)nc21` [PIROMIDIC ACID], the IC50 entry in assay [1], in assay [2] (hek293), in assay [3], in assay [4], in assay [5] and in assay [6] was “Not Active” throughout. Moreover, the IC50 result in assay [7] was “Not Active”. Moreover, the Ki entry in assay [3] and in assay [5] was “Not Active” in each case.
Take `CC(C)c1cccc(C(C)C)c1O` [PROPOFOL]: the IC50 entry in assay [1], in assay [2] (hek293), in assay [3], in assay [4], in assay [5] and in assay [6] was “Not Active” in each case. For the same compound, in assay [7], the IC50 entry is on record as “Not Active”. Also, the Ki entry in assay [3] and in assay [5] was “Not Active” each time.
As for `COC(=O)Nc1nc2ccc(C(=O)c3cccs3)cc2[nH]1` [NOCODAZOLE], the IC50 entry in assay [1], in assay [2] (hek293), in assay [3], in assay [4], in assay [5] and in assay [6] was “Not Active” throughout. The IC50 result in assay [7] is reported as “Not Active”. The Ki result in assay [3] and in assay [5] was “Not Active” in each case.
Take AURANOFIN: the IC50 entry in assay [1], in assay [2] (hek293), in assay [3], in assay [4], in assay [5] and in assay [6] was “Not Active” throughout. In addition, the IC50 result in assay [7] is listed as “Not Active”. For the same compound, the Ki entry in assay [1], in assay [2] (hek293), in assay [3], in assay [4], in assay [5] and in assay [6] was “Not Active” throughout. In addition, the Ki entry in assay [7] is reported as “Not Active”.
Take `Cc1nnc2n1-c1ccc(Cl)cc1C(c1ccccc1)=NC2` [ALPRAZOLAM]: the IC50 result in assay [1], in assay [2] (hek293), in assay [3], in assay [4], in assay [5] and in assay [6] was “Not Active” throughout. Besides, the concentration for half-maximal inhibition (IC50) entry in assay [7] was “Not Active”. In addition, the inhibitory constant (Ki) result in assay [3] and in assay [5] was “Not Active” each time.
On to `CC(=O)[C@H]1[C@H](C#N)C[C@H]2[C@@H]3CC=C4C[C@@H](O)CC[C@]4(C)[C@H]3CC[C@@]21C` [PREGNENOLONE CARBONITRILE], for which the IC50 result in assay [1], in assay [2] (hek293), in assay [3], in assay [4], in assay [5] and in assay [6] was “Not Active” each time. In addition, the IC50 result in assay [7] was “Not Active”. In addition, the inhibition constant Ki entry in assay [3] and in assay [5] was “Not Active” each time.
